Earlier results in patent US20080008727A1, “Compositions comprising adapalene dissolved with cyclodextrins” (GALDERMA RESEARCH & DEVELOPMENT, priority 2004, published 2008).

COc1ccc(-c2ccc3cc(C(=O)O)ccc3c2)cc1C12CC3CC(CC(C3)C1)C2 [adapalene, 6-[3-(1-adamantyl)-4-methoxyphenyl]-2-naphthoic acid]
Solubility in water (in words): practically insoluble in water
